Data as given in patent publication US11446269B2, “Methods of reducing or preventing oxidation of small dense LDL or membrane polyunsaturated fatty acids” (Amarin Pharmaceuticals Ireland Limited, priority 2014, dated 2022).

Key:
sdLDL = test: Copper-induced sdLDL oxidation (Example 12); assay type: biochemical, human; conditions: 10.0 μM, copper-induced oxidation 1 hour, vs vehicle
HUVECs [1] = test: NO and ONOO^− release from HUVECs pretreated with agents, then oxLDL (Example 11, objective 1); assay type: cell-based, human; conditions: agents 10 μM, 30 min pretreatment, then oxLDL 11 mg/dL up to 3 hr
Procedure: Human umbilical vein endothelial cells (HUVECs) were obtained from healthy, female donors and isolated into primary, proliferating cell cultures (Clonetics, San Diego, Calif.). […] The confluent cells (4 to 5×10^5 cells/35 mm dish) were plated with minimum essential medium containing 3 mM L-arginine and 0.1 mM BH4 [(6R)-5,6,7,8-tetrahydrobiopterin]. Before experimental use, the cells (from second or third passage) were rinsed twice with Tyrode-HEPES buffer with 1.8 mM CaCl2.
Venous blood was collected from healthy volunteers into vacutainer tubes containing sodium EDTA. […] The LDL subfraction was retained for additional experimentation. Plasma and lipoprotein fractions were maintained at 4° C. and protected from excessive exposure to light. Prior to oxidation experiments, EDTA was removed from the lipoprotein fraction using PD-10 desalting columns (GE Healthcare, Piscataway N.J.). After equilibration of the column with phosphate buffered saline (PBS), 2.5 mL of the lipoprotein fraction was loaded on the column and the flow-through discarded. The lipoprotein was then eluted with 3 mL of PBS. The LDL fractions were further diluted with PBS to obtain a 100 μg/mL apoB100 concentration.
LDL underwent oxidation following the addition of 10 μM CuSO4. To measure oxidation, 100 μL aliquots were removed and combined with 1.0 mL thiobarbituric acid (0.5%), 10 μL trichloroacetic acid (5%), 10 μL BHT (5 mg/mL in methanol), and 10 μL EDTA (5 mM). […] Sample TBARS concentrations were determined spectrophotometrically by measuring sample absorbances against a standard curve derived from the hydrolysis of 1,1,3,3-tetramethoxypropane.
Concurrent measurements of NO and ONOO^− were performed with tandem electrochemical nanosensors combined into one working unit with a total diameter of 200-400 nm. […]
(§1) The amperometric method (with a response time of 0.1 ms) provides a quantitative signal (current) that is directly proportional to changes (from basal levels) in NO or ONOO^− concentration. […] Basal NO or ONOO^− levels were measured by differential pulse voltammetry in separate experiments. […]

HUVECs [2] = test: NO and ONOO^− release from HUVECs exposed to oxLDL, nanosensors (Example 8); assay type: cell-based, human; conditions: oxLDL 20 min, then agent 1 hour (EPA 10 μM, ATM 1.0 μM)
Procedure: Human umbilical vein endothelial cells (HUVECs) were isolated into primary cultures from female donors by Clonetics (San Diego, Calif.) and purchased as proliferating cells. All cell culture donors were healthy, with no pregnancy or prenatal complications. […] The confluent cells (4 to 5×10^5 cells/35 mm dish) were placed with minimum essential medium containing 3 mM L-arginine and 0.1 mM BH4 [(6R)-5,6,7,8-tetrahydrobiopterin]. Before experimental use, the cells (from second or third passage) were rinsed twice with Tyrode-HEPES buffer with 1.8 mM CaCl2.
The omega-3 fatty acids (O3FAs) cis-5,8,11,14,17-eicosapentaenoic acid (EPA) and docosahexaenoic acid (DHA) were purchased from Sigma-Aldrich (St. Louis, Mo.) and prepared initially at 11 mM in redistilled ethanol. Primary and secondary O3FA stock solutions were prepared and stored under argon at −20° C. […]
Oxidation was monitored by the use of measurements of TBARS. […] TBARS concentration was determined as malondialdehyde (MDA) equivalents with the use of an MDA standard curve. […]
as §1

SMILES	reduction of sdLDL oxidation (sdLDL) [%]	NO/ONOO^− Ratio (HUVECs [1])	NO release (HUVECs [1]; calcium ionophore)	NO/ONOO^− Ratio (HUVECs [1]; listed as niacin)	NO/ONOO^− Ratio (HUVECs [2])	NO release (HUVECs [2]; unit printed in b302 only) [nM]
CC/C=C\C/C=C\C/C=C\C/C=C\C/C=C\CCCC(=O)O [EPA, cis-5,8,11,14,17-eicosapentaenoic acid]	> 90					
O=C(O)c1cccnc1 [Niacin, nicotinic acid]		1.45 ± 0.14	346 ± 17	1.45±0.14	2.00 ± 0.52	431 ± 100
